Reference: ChEMBL document CHEMBL1821636, “Binding inhibitors of the bacterial sliding clamp by design” (J Med Chem, 2011)
Non-standard residues stand in square brackets, D forms with d. Residues, ends and D or L forms follow the SMILES beside them. Phe(3,4-Cl2) = N[C@@H](Cc1ccc(Cl)c(Cl)c1)C(=O)O; pGlu = O=C1CC[C@@H](C(=O)O)N1

Assays:
[1] = Inhibition of Escherichia coli polymerase 3alpha/beta subunit homo dimer interaction by plate binding assay
[2] = Binding affinity to Escherichia coli polymerase 3 beta subunit homo dimer by SPR assay

IC50 [1] | IC50 [2] | Compound
63 nM | 61 nM | CCC(=O)N[C@@H](CCC(N)=O)C(=O)N[C@@H](CC(C)C)C(=O)N[C@@H](CC(=O)O)C(=O)N[C@@H](CC(C)C)C(=O)N[C@@H](Cc1ccc(Cl)c(Cl)c1)C(=O)O
345000 nM |  | H-IGQADWFGV-OH
37 nM | 33 nM | CSCC[C@H](NC(=O)[C@H](CC(=O)O)NC(=O)[C@H](CC(C)C)NC(=O)[C@H](CCC(N)=O)NC(C)=O)C(=O)N[C@@H](Cc1ccc(Cl)c(Cl)c1)C(=O)O (Ac-QLDM[Phe(3,4-Cl2)]-OH)
4500 nM |  | CC(C)C[C@H](NC(=O)[C@H](CC(=O)O)NC(=O)[C@H](CC(C)C)NC(=O)[C@@H]1CCC(=O)N1)C(=O)N[C@@H](Cc1ccccc1)C(=O)O ([pGlu]LDLF-OH)
62 nM | 69 nM | CC(C)C[C@H](NC(=O)[C@H](CC(=O)O)NC(=O)[C@H](CC(C)C)NC(=O)[C@H](CCC(N)=O)NC(=O)C(C)(C)C)C(=O)N[C@@H](Cc1ccc(Cl)c(Cl)c1)C(=O)O
2300 nM | 550 nM | H-IGQLSLFGV-OH
69 nM | 456 nM | CC(C)C[C@H](NC(=O)[C@H](CC(=O)O)NC(=O)[C@H](CC(C)C)NC(=O)[C@H](CCC(N)=O)NC(=O)c1ccccc1)C(=O)N[C@@H](Cc1ccc(Cl)c(Cl)c1)C(=O)O
86 nM | 89 nM | COC(=O)N[C@@H](CCC(N)=O)C(=O)N[C@@H](CC(C)C)C(=O)N[C@@H](CC(=O)O)C(=O)N[C@@H](CC(C)C)C(=O)N[C@@H](Cc1ccc(Cl)c(Cl)c1)C(=O)O
66 nM | 537 nM | CC(C)C[C@H](NC(=O)[C@H](CC(=O)O)NC(=O)[C@H](CC(C)C)NC(=O)[C@H](CCC(N)=O)NC(=O)Cc1c[nH]c2ccccc12)C(=O)N[C@@H](Cc1ccc(Cl)c(Cl)c1)C(=O)O
42 nM | 27 nM | COc1ccc(C(=O)N[C@@H](CCC(N)=O)C(=O)N[C@@H](CC(C)C)C(=O)N[C@@H](CC(=O)O)C(=O)N[C@@H](CC(C)C)C(=O)N[C@@H](Cc2ccc(Cl)c(Cl)c2)C(=O)O)c(OC)c1
70 nM | 400 nM | CC(=O)N[C@@H](CCC(N)=O)C(=O)N[C@@H](CC(C)C)C(=O)N[C@@H](CC(=O)O)C(=O)N[C@@H](CC(C)C)C(=O)N[C@@H](Cc1ccccc1)C(=O)O
174000 nM |  | H-IGQADFFGV-OH
27 nM | 20 nM | CC(=O)N[C@@H](CCC(N)=O)C(=O)N[C@@H](CC(C)C)C(=O)N[C@@H](CC(=O)O)C(=O)N[C@@H](CC(C)C)C(=O)N[C@@H](Cc1ccc(Cl)cc1)C(=O)O
67 nM | 337 nM | CC(C)C[C@H](NC(=O)[C@H](CC(=O)O)NC(=O)[C@H](CC(C)C)NC(=O)[C@H](CCC(N)=O)NC(=O)COCc1ccccc1)C(=O)N[C@@H](Cc1ccc(Cl)c(Cl)c1)C(=O)O
21 nM | 23 nM | CC(=O)N[C@@H](CCC(N)=O)C(=O)N[C@@H](CC(C)C)C(=O)N[C@@H](CC(=O)O)C(=O)N[C@@H](CC(C)C)C(=O)N[C@@H](Cc1ccc(Cl)c(Cl)c1)C(=O)O
56000 nM |  | H-IGQADLFGV-OH
11 nM | 49 nM | CC(=O)N[C@@H](CCC(N)=O)C(=O)N[C@@H](CC(C)C)C(=O)N[C@@H](CC(=O)O)C(=O)N[C@@H](CC(C)C)C(=O)N[C@@H](Cc1cccc(Cl)c1)C(=O)O
34 nM | 117 nM | CC(=O)N[C@@H](CCC(N)=O)C(=O)N[C@@H](CC(C)C)C(=O)N[C@@H](CC(=O)O)C(=O)N[C@@H](CC(C)C)C(=O)N[C@@H](Cc1ccccc1Cl)C(=O)O
300000 nM |  | CCCC(C)(c1ccc(OC(=O)Cc2ccc([N+](=O)[O-])cc2)cc1)c1ccc(OC(=O)Nc2ccc([N+](=O)[O-])cc2)cc1 (stereo not given)
282000 nM |  | H-IGQADMWGV-OH
40000 nM |  | CCC/C(=N\OCc1ccc(-c2ccc(F)cc2)cc1)C1C(=O)CC(C)(C)C(C#N)C1=O (stereo not given)
210000 nM |  | NC(CCC(=O)NC(CSCC(=O)c1ccc(Br)cc1)C(=O)NCC(=O)O)C(=O)O (stereo not given)
350000 nM |  | CCC/C(=N\OC/C(Cl)=C/c1ccc(Cl)cc1)C1C(=O)CC(C)(C)CC1=O
2600 nM | 620 nM | CC(C)C[C@H](NC(=O)[C@H](CC(=O)O)NC(=O)[C@H](CC(C)C)NC(=O)[C@@H](N)CCC(N)=O)C(=O)N[C@@H](Cc1ccccc1)C(=O)O
270000 nM |  | CCC/C(=N\OCc1ccc(-c2ccccc2)cc1)C1C(=O)CC(C)(C2OCC(C)(C)CO2)OC1=O (stereo not given)
20 nM | 41 nM | CC(C)COC(=O)N[C@@H](CCC(N)=O)C(=O)N[C@@H](CC(C)C)C(=O)N[C@@H](CC(=O)O)C(=O)N[C@@H](CC(C)C)C(=O)N[C@@H](Cc1ccc(Cl)c(Cl)c1)C(=O)O
315000 nM |  | H-IGQADIFGV-OH

Compound | IC50 [1] | IC50 [2]
CC[C@H](C)[C@H](N)C(=O)NCC(=O)N[C@@H](CCC(N)=O)C(=O)N[C@@H](C)C(=O)N[C@@H](CC(=O)O)C(=O)N[C@@H](CCSC)C(=O)N[C@@H](Cc1ccccc1)C(=O)NCC(=O)N[C@H](C(=O)O)C(C)C | 96000 nM | 3000 nM
